In patent publication US20150307508A1, “Application of an alkaloid derived from a Chinese herbal for treatment of cancer by inhibiting cholesterol synthesis and fatty acid oxidation” (Macau University of Science and Technology, priority 2014, published 2015):
“And” between values parts separate entries of the source, which are not always exact repeats. Equal values may be shown once.

How the values were obtained:
H1650 cells [1] = assay: Thin-layer chromatography of total cellular lipid, H1650; format: cell-based, human; conditions: H1650, 5 μM, 72 hours
Description: (§1) Cells were scraped from culture dish and resuspended in 2 ml PBS containing 1× protease inhibitor and 1 mM PMSF. Total cellular lipid was extracted by adding 4 ml chloroform/methanol (2:1). The mixture was vortexed for 1 min and centrifuged at 1500 g×5 min. The organic phase was collected and another 2.5 ml choloroform was added to the residual aqueous phase; the mixture was vortexted and centrifuged at 1500 g×5 min again. The organic phase was collected together with the previous extraction. Thin layer chromatography (TLC) was performed by spotting of the cellular total lipid extract to a 5×10 cm silica gel aluminum sheet and developed with hexane/diethyl ether/acetic acid (80:20:2). Lipids were visualized with iodine vapor and imaged using a desktop scanner
(§2) The overall lipid levels in H1975 and H1650 treated by Berberine were studied in this example. H1975 and H1650 cells were treated with 5 μM BBR for 72 hours and then total cellular lipid was extracted.

CCND1 = assay: Western blot analysis of CCND1 protein level in H1975 cells; format: cell-based, human; conditions: 72 hrs
CCNB1 = assay: Western blot analysis of CCNB1 protein level in H1975 cells; format: cell-based, human; conditions: 72 hrs
H1975 cells [2] = assay: Thin-layer chromatography of total cellular lipid, H1975; format: cell-based, human; conditions: H1975, 5 μM, 72 hours
Description: as §1, §2

[3] = tested on: BEAS-2B (Normal lung epithelial cell); assay: MTT cytotoxicity assay, BEAS-2B; format: cell-based; conditions: Homo sapiens, 72 hrs, read-out: IC50 value after 72 hrs of treatment
Text: (§3) This example described the BBR-induced cytotoxicity effect in six NSCLC cell lines utilizing MTT cytotoxicity assay. A549 is wild type EGFR and BEAS-2B is normal lung epithelial cells.

A549 (EGFR^Wild type) = assay: MTT cytotoxicity assay, A549; format: cell-based; conditions: Homo sapiens, A549, 72 hrs, read-out: IC50 value after 72 hrs of treatment
Text: as §3

CPT1C = assay: Real-time PCR analysis of CPT1C RNA expression; format: cell-based, human; conditions: 24 hrs
Description: (§4) The RNA expression levels of CPT1C and SREBP1 in both H1975 and H1650 cell lines after being treated with 10 μM BBR for 24 hrs were analyzed by Real-time PCR analysis and Western blot analysis, as shown in FIGS. 2A-2D.

H1650 cells [4] = assay: Cell cycle analysis of H1650; format: cell-based, human; conditions: 72 hrs
Text: (§5) The anticancer effect of berberine against two most BBR sensitive cell lines are further studied in Example 8, namely H1975 (EGFR^L858R+T790M) and H1650 (EGFR^Exon19 deletion).

H1975 (EGFR^L858R+T790M) = assay: MTT cytotoxicity assay, H1975; format: cell-based; conditions: Homo sapiens, NCI-H1975, H1975, 72 hrs, read-out: IC50 value after 72 hrs of treatment
Text: as §3

H1819 [5] = assay: MTT cytotoxicity assay, H1819; format: cell-based; conditions: Homo sapiens, NCI-H1819, H1819, 72 hrs, read-out: IC50 value after 72 hrs of treatment
Text: as §3

[6] = tested on: H1650 (EGFR^Exon19 deletion); assay: MTT cytotoxicity assay, H1650; format: cell-based; conditions: Homo sapiens, NCI-H1650, H1650, 72 hrs, read-out: IC50 value after 72 hrs of treatment
Text: as §3

SREBP1 = assay: Real-time PCR analysis of SREBP1 RNA expression; format: cell-based, human; conditions: 24 hrs
Description: as §4

H1975 cells [7] = assay: Cell cycle analysis of H1975; format: cell-based, human; conditions: 72 hrs
Text: as §5

HCC827 = assay: MTT cytotoxicity assay, HCC827; format: cell-based; conditions: Homo sapiens, HCC827, 72 hrs, read-out: IC50 value after 72 hrs of treatment
Text: as §3

H1819 [8] = conditions: cited from earlier work
[9] = tested on: BEAS-2B (Normal lung epithelial cell); conditions: cited from earlier work
H1650 = conditions: cited from earlier work
H1975 = conditions: cited from earlier work

With COc1ccc2cc3[n+](cc2c1OC)CCc1cc2c(cc1-3)OCO2 [BBR, berberine] the “overall lipid levels (TLC)” value (H1650 cells [1]) was “lower the overall lipid levels”, the “protein level of CCND1 (Western blot)” value (CCND1) was “down-regulated” and the “protein level of CCNB1 (Western blot)” value (CCNB1) was “down-regulated”. For the same compound, the “overall lipid levels (TLC)” value (H1975 cells [2]) was “lower the overall lipid levels”, the IC50 [3] was 24.7 ± 12.4 µM and the IC50 (A549 (EGFR^Wild type)) was 11.2 ± 3.98 µM. For the same compound, the “increase of RNA expression level of CPT1C vs vehicle control” value (CPT1C; H1650, 10 μM) was 5.92 times, the “increase of RNA expression level of CPT1C vs vehicle control” value (CPT1C; H1975, 10 μM) was 2.005 times and the “decrease of percentage of G0/G1 phase vs control” value (H1650 cells [4]; H1650, 5 μM) was 21.1%. The “decrease of percentage of G0/G1 phase vs control” value (H1650 cells [4]; H1650, 10 μM) was 18.3%, the IC50 (H1975 (EGFR^L858R+T790M)) was 2.92 ± 0.49 µM and the IC50 (H1819 [5]) was 6.51 ± 2.09 µM. The IC50 [6] was 6 ± 2.78 µM, the “decrease of RNA expression level of SREBP1 vs vehicle control” value (SREBP1; H1650, 10 μM) was 2.64 times and the “decrease of RNA expression level of SREBP1 vs vehicle control” value (SREBP1; H1975, 10 μM) was 9.23 times. For the same compound, the “decrease of percentage of G0/G1 phase vs control” value (H1975 cells [7]; H1975, 5 μM) was 11.5%, the “increase of G2 phase vs control” value (H1975 cells [7]; H1975, 5 μM) was 11% and the “decrease of percentage of G0/G1 phase vs control” value (H1975 cells [7]; H1975, 10 μM) was 14%. The “increase of G2 phase vs control” value (H1975 cells [7]; H1975, 10 μM) was 15.73% and 15.7% and the IC50 (HCC827) was 8.9 ± 4.4 µM.
In the case of COc1cc2ncnc(Nc3ccc(F)c(Cl)c3)c2cc1OCCCN1CCOCC1 [Gefitinib], the “Gefitinib Sensitivity” value (H1819 [8]) is given as “Moderately sensitive”, the “Gefitinib Sensitivity” value [9] is given as “Resistant” and the “Gefitinib Sensitivity” value (H1650) is given as “Resistant”. The “Gefitinib Sensitivity” value (H1975) was “Resistant”.
